Laboratory results reported in ChEMBL document CHEMBL4265897, “Discovery of benzothiazole amides as potent antimycobacterial agents” (Bioorg Med Chem Lett, 2018).
≈ marks a conversion by molar mass, not a printed value.

Columns and labels:
[1] = system: Mycobacteroides abscessus; assay: Antimycobacterial activity against Mycobacterium abscessus 1 by CLSI method; type: functional
Mycobacteroides chelonae = assay: Antimycobacterial activity against Mycobacterium chelonae 93 by CLSI method; type: functional
[2] = system: Mycobacterium tuberculosis; assay: Antimycobacterial activity against Mycobacterium tuberculosis H37Rv MC2 6206 by CLSI method; type: functional
[3] = system: Mycolicibacterium fortuitum; assay: Antimycobacterial activity against Mycobacterium fortuitum 41 by CLSI method; type: functional
[4] = system: Mycolicibacterium peregrinum; assay: Antimycobacterial activity against Mycobacterium peregrinum ATCC 700686 by CLSI method; type: functional
[5] = system: Mycobacteroides abscessus; assay: Antimycobacterial activity against Mycobacterium massiliense 119 by CLSI method; type: functional, Mycobacterium abscessus subsp. massiliense
Mycobacterium avium = assay: Antimycobacterial activity against Mycobacterium avium 101 by CLSI method; type: functional
CYP3A4 = CYP3A4 (Homo sapiens, UniProt P08684); assay: Inhibition of CYP3A4 (unknown origin) at 10 uM; type: ADME
Chain of CYP3A4 (P08684 whole entry): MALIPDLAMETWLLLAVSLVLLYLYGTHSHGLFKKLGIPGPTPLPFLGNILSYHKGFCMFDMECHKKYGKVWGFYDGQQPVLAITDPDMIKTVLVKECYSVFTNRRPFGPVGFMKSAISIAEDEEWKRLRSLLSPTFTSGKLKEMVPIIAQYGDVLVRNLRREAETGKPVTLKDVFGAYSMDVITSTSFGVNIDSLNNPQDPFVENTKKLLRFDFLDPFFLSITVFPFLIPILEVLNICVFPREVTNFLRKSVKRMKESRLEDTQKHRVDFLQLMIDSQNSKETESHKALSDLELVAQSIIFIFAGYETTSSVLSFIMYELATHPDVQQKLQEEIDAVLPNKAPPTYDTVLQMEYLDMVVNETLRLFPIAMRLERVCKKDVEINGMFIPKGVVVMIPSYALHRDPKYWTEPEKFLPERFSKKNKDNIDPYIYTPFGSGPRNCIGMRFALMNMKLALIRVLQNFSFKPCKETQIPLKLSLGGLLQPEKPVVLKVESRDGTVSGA

[6] = system: Mycobacteroides abscessus; assay: Antimycobacterial activity against Mycobacterium abscessus 79 by CLSI method; type: functional
[7] = system: Mycobacterium intracellulare; assay: Antimycobacterial activity against Mycobacterium intracellulare 1956 by CLSI method; type: functional
CYP2B6 = target: T1, CYP2B6 (Homo sapiens, UniProt P20813); assay: Inhibition of CYP2B6 (unknown origin) at 10 uM; type: ADME
T1 sequence (P20813 whole entry): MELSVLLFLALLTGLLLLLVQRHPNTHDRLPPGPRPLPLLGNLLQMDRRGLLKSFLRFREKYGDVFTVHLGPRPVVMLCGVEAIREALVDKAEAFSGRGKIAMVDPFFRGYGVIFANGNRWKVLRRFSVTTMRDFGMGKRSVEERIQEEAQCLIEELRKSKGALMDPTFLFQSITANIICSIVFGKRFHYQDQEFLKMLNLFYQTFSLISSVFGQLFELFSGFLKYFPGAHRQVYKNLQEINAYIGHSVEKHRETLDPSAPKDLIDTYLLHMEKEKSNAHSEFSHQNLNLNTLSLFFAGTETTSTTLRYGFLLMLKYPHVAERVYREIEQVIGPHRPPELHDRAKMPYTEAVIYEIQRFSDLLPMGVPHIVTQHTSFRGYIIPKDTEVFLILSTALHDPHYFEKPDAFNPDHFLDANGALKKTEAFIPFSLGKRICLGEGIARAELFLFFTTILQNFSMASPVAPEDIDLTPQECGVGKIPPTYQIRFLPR

[8] = system: Mycobacteroides abscessus; assay: Antimycobacterial activity against Mycobacterium abscessus 103 by CLSI method; type: functional
[9] = system: Mycobacteroides abscessus; assay: Antimycobacterial activity against Mycobacterium abscessus 21 by CLSI method; type: functional
RBCs = assay: Hemolytic activity in RBC (unknown origin) at 128 ug/ml; type: ADME, cell-based; details: erythrocyte
Cytochrome P450 2C8 = target: T2, Cytochrome P450 2C8 (Homo sapiens, UniProt P10632); assay: Inhibition of CYP2C8 (unknown origin); type: ADME
T2 sequence (P10632 whole entry): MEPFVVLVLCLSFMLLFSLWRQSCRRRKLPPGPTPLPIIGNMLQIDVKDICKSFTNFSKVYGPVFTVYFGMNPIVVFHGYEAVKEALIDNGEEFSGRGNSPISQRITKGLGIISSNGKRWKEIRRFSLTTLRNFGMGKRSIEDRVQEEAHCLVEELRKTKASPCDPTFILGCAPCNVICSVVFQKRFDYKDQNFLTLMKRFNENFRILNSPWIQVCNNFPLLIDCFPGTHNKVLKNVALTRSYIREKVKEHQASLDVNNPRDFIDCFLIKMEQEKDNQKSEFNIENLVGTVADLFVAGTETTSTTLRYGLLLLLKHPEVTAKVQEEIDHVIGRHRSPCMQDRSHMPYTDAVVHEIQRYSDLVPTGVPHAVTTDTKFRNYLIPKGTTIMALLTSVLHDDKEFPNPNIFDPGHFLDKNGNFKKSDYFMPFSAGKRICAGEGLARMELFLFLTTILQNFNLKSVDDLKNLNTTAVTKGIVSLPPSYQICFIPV

[10] = Oral bioavailability in mouse at 100 mg/kg; type: ADME, organism-based; details: in vivo
[11] = Solubility of the compound; type: physicochemical
Cytochrome P450 3A4 [12] = target: T3, Cytochrome P450 3A4 (Homo sapiens, UniProt P08684); assay: Inhibition of CYP3A4 (unknown origin) using testosterone as substrate; type: ADME
T3 sequence (P08684 whole entry): as the sequence (P08684 whole entry) above

Cytochrome P450 2D6 = Cytochrome P450 2D6 (Homo sapiens, UniProt P10635); assay: Inhibition of CYP2D6 (unknown origin); type: ADME
Chain of Cytochrome P450 2D6 (P10635 whole entry): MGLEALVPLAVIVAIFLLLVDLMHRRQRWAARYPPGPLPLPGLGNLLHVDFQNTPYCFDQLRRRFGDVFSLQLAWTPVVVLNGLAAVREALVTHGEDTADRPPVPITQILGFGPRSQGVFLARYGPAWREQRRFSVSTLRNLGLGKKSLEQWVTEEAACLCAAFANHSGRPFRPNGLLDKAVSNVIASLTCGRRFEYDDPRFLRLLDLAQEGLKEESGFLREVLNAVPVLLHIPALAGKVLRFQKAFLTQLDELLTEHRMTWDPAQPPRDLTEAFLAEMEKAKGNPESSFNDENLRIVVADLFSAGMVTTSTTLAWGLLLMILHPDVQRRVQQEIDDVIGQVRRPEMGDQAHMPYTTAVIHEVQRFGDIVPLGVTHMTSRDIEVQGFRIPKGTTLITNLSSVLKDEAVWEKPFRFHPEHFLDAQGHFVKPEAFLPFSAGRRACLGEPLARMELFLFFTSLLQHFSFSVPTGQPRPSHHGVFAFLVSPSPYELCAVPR

[13] = Protein binding in human serum; type: ADME, cell-free; details: read-out: PB
Cytochrome P450 2C9 = Cytochrome P450 2C9 (Homo sapiens, UniProt P11712); assay: Inhibition of CYP2C9 (unknown origin); type: ADME
Chain of Cytochrome P450 2C9 (P11712 whole entry): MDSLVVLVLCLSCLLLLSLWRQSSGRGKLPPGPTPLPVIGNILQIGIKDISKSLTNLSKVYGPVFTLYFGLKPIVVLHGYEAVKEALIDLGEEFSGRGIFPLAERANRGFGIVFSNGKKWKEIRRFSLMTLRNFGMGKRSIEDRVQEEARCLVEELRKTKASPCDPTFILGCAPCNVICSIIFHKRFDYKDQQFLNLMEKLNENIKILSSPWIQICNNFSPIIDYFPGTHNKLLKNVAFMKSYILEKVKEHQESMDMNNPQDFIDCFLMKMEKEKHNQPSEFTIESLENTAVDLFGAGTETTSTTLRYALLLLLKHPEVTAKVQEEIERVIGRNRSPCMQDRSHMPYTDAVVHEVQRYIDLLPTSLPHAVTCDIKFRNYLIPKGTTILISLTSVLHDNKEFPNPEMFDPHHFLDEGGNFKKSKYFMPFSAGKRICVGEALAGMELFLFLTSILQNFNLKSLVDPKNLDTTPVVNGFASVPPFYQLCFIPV

Cytochrome P450 2B6 = target: T4, Cytochrome P450 2B6 (Homo sapiens, UniProt P20813); assay: Inhibition of CYP2B6 (unknown origin); type: ADME
T4 sequence (P20813 whole entry): T1 sequence (P20813 whole entry)

[14] = Clearance in mouse plasma at 10 mg/kg, iv; type: ADME, organism-based
Cytochrome P450 3A4 [15] = target: T3, Cytochrome P450 3A4; assay: Inhibition of CYP3A4 (unknown origin) using midazolam as substrate; type: ADME
Cytochrome P450 2C19 = Cytochrome P450 2C19 (Homo sapiens, UniProt P33261); assay: Inhibition of CYP2C19 (unknown origin); type: ADME
Chain of Cytochrome P450 2C19 (P33261 whole entry): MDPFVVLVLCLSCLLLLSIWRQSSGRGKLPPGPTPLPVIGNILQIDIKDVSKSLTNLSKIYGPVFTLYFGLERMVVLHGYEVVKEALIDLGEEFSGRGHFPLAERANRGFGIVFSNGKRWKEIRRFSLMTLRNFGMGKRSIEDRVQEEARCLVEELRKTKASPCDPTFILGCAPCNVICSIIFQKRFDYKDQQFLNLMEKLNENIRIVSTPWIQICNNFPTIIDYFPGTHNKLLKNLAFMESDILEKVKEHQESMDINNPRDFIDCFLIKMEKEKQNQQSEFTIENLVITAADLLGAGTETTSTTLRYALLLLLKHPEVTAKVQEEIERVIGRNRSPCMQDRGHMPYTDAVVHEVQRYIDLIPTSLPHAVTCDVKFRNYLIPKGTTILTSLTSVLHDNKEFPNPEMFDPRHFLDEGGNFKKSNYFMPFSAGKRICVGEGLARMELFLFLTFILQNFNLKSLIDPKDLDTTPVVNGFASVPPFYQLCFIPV

Mus musculus = assay: Toxicity in mouse assessed as abnormal behavior at 100 to 300 mg/kg, po administered as single dose; type: organism-based; details: in vivo
[16] = system: Mycobacteroides abscessus; assay: Antimycobacterial activity against Mycobacterium abscessus ATCC 19977 by CLSI method; type: functional
HepG2 = assay: Cytotoxicity against human HepG2 cells; type: cell-based

| Structure (SMILES) | MIC [1] | MIC (Mycobacteroides chelonae) | MIC [2] | MIC [3] | MIC [4] | MIC [5] | MIC (Mycobacterium avium) | MIC [6] | MIC [7] | MIC [8] | MIC [9] | Activity (RBCs) | IC50 (Cytochrome P450 2C8) | solubility [11] | IC50 (Cytochrome P450 3A4 [12]) | IC50 (Cytochrome P450 2D6) | fraction unbound [13] | IC50 (Cytochrome P450 2C9) | IC50 (Cytochrome P450 2B6) | IC50 (Cytochrome P450 3A4 [15]) | other results |
| --- | --- | --- | --- | --- | --- | --- | --- | --- | --- | --- | --- | --- | --- | --- | --- | --- | --- | --- | --- | --- | --- |
| CC12CCCC(C(=O)Nc3nc4ccc(OC(F)(F)F)cc4s3)(CCC1)C2 | 0.06 µg/mL (≈ 0.151 µM) | 0.06 µg/mL (≈ 0.151 µM) | 1 µg/mL (≈ 2.51 µM) | 0.5 µg/mL (≈ 1.25 µM) | 0.06 µg/mL (≈ 0.151 µM) | 0.06 µg/mL (≈ 0.151 µM) | 2 µg/mL (≈ 5.02 µM) | 0.06 µg/mL (≈ 0.151 µM) | 2 µg/mL (≈ 5.02 µM) | 0.12 µg/mL (≈ 0.301 µM) | 0.06 µg/mL (≈ 0.151 µM) |  |  |  |  |  |  |  |  |  | inhibition at 10 µM (CYP3A4): > 50%; inhibition at 10 µM (CYP2B6): > 50% |
| CC1CC(C)CC(C(=O)Nc2nc3ccc(C(F)(F)F)cc3s2)C1 (stereo unspecified) | 2 µg/mL (≈ 5.61 µM) | 1 µg/mL (≈ 2.81 µM) | 4 µg/mL (≈ 11.2 µM) | 1 µg/mL (≈ 2.81 µM) | 0.25 µg/mL (≈ 0.701 µM) | 0.5 µg/mL (≈ 1.4 µM) | > 64 µg/mL | 2 µg/mL (≈ 5.61 µM) | > 64 µg/mL | 0.25 µg/mL (≈ 0.701 µM) | 1 µg/mL (≈ 2.81 µM) | Non-Toxic | > 20 µM | Insoluble | > 20 µM | 1.4 µM | < 0.01 | > 20 µM | > 20 µM | > 20 µM | bioavailability [10]: 53%; clearance [14]: 28.3 mL/min/kg; IC50 (Cytochrome P450 2C19): > 20 µM |
| CC1CC(C(=O)Nc2nc3c(F)cc(F)cc3s2)CC(C)(C)C1 (stereo unspecified) | 1 µg/mL (≈ 2.95 µM) | 0.25 µg/mL (≈ 0.739 µM) |  | 0.25 µg/mL (≈ 0.739 µM) | 0.2 µg/mL (≈ 0.591 µM) | 0.5 µg/mL (≈ 1.48 µM) | 64 µg/mL (≈ 189 µM) | 0.5 µg/mL (≈ 1.48 µM) | 4 µg/mL (≈ 11.8 µM) | 0.5 µg/mL (≈ 1.48 µM) | 0.5 µg/mL (≈ 1.48 µM) |  |  |  |  |  |  |  |  |  | Activity (Mus musculus): Non-Toxic |
| O=C(Nc1nc2ccc(OC(F)(F)F)cc2s1)C1CCCCC1 | > 64 µg/mL | > 64 µg/mL | 64 µg/mL (≈ 186 µM) | > 64 µg/mL | > 64 µg/mL | > 64 µg/mL | > 64 µg/mL | > 64 µg/mL | > 64 µg/mL | > 64 µg/mL | 16 µg/mL (≈ 46.5 µM) |  |  |  |  |  |  |  |  |  | MIC [16]: 32 µg/mL (≈ 92.9 µM) |
| CC1CC(C(=O)Nc2nc3ccc(Cl)cc3s2)CC(C)(C)C1 (stereo unspecified) | 0.5 µg/mL (≈ 1.48 µM) | 0.25 µg/mL (≈ 0.742 µM) | 4 µg/mL (≈ 11.9 µM) | 0.25 µg/mL (≈ 0.742 µM) | 0.12 µg/mL (≈ 0.356 µM) | 0.5 µg/mL (≈ 1.48 µM) | 16 µg/mL (≈ 47.5 µM) | 0.25 µg/mL (≈ 0.742 µM) | 4 µg/mL (≈ 11.9 µM) | 0.25 µg/mL (≈ 0.742 µM) | 0.25 µg/mL (≈ 0.742 µM) | Non-Toxic | > 20 µM | Insoluble | > 20 µM | 0.2 µM | < 0.01 | > 20 µM | 14.9 µM | > 20 µM | IC50 (Cytochrome P450 2C19): 15.5 µM |
| CC1CC(C(=O)Nc2nc3cc(Br)ccc3s2)CC(C)(C)C1 (stereo unspecified) | 32 µg/mL (≈ 83.9 µM) | 16 µg/mL (≈ 42 µM) |  | 16 µg/mL (≈ 42 µM) | 4 µg/mL (≈ 10.5 µM) | 64 µg/mL (≈ 168 µM) | > 64 µg/mL | 16 µg/mL (≈ 42 µM) | > 64 µg/mL | 16 µg/mL (≈ 42 µM) | 16 µg/mL (≈ 42 µM) |  |  |  |  |  |  |  |  |  | MIC [16]: 32 µg/mL (≈ 83.9 µM) |
| CC12CC3CC(C)(C1)CC(C(=O)Nc1nc4ccccc4s1)(C3)C2 |  |  | 4 µg/mL (≈ 11.7 µM) |  |  |  | 2 µg/mL (≈ 5.87 µM) |  | 2 µg/mL (≈ 5.87 µM) |  |  |  |  |  |  |  |  |  |  |  | MIC [16]: 1 µg/mL (≈ 2.94 µM) |
| CC1CC(C(=O)Nc2nc3ccc(OC(F)(F)F)cc3s2)CC(C)(C)C1 (stereo unspecified) | 0.5 µg/mL (≈ 1.29 µM) | 0.12 µg/mL (≈ 0.311 µM) |  | 1 µg/mL (≈ 2.59 µM) | 0.25 µg/mL (≈ 0.647 µM) | 0.25 µg/mL (≈ 0.647 µM) | > 64 µg/mL | 0.25 µg/mL (≈ 0.647 µM) | > 64 µg/mL | 0.25 µg/mL (≈ 0.647 µM) | 0.25 µg/mL (≈ 0.647 µM) | Non-Toxic | > 20 µM | Insoluble | > 20 µM | > 20 µM | < 0.01 | > 20 µM | > 20 µM | > 20 µM | IC50 (HepG2): > 100 µM; IC50 (Cytochrome P450 2C19): > 20 µM |
